Peptide text beside a SMILES is read from it. * marks the point of attachment. X1 = CCCCCCCCCCCCCCCC(=O)OCC(C*)OC(=O)CCCCCCCCCCCCCCC; Palmitoyl = CCCCCCCCCCCCCCCC(=O)*
Columns and labels:
Type in all cases: cell-based
[1] = target: T1, human TLR2/1 (Homo sapiens, UniProt O60603+Q15399); assay: NF-κB dual luciferase reporter assay in SW620 cells transfected with human TLR2+TLR1+CD14; details: human TLR2+TLR1+CD14, 6 h stimulation, normalised curves
T1 construct: FLAG (from vector pFLAG-CMV); expressed in transfected cells; host or cells: SW620 (human)
T1 sequence (O60603 21-784): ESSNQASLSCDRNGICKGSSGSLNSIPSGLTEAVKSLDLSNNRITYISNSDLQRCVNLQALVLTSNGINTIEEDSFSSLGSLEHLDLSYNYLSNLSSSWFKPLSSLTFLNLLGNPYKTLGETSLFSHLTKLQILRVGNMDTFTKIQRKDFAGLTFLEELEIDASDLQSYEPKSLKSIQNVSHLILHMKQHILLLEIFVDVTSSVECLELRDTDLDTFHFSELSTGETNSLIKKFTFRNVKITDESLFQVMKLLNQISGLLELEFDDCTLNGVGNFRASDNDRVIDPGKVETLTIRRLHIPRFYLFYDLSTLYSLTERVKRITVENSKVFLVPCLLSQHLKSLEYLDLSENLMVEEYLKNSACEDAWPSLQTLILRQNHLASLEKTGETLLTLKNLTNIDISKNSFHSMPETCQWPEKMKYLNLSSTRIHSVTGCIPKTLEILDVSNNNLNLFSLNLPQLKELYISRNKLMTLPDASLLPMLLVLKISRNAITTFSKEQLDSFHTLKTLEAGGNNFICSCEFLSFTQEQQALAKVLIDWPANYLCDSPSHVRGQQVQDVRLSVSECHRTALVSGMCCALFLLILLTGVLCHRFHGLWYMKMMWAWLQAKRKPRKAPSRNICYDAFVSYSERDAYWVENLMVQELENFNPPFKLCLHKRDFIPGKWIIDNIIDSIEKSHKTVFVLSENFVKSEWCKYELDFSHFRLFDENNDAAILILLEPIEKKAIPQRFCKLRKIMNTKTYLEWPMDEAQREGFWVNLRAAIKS
T1 sequence (Q15399 25-786): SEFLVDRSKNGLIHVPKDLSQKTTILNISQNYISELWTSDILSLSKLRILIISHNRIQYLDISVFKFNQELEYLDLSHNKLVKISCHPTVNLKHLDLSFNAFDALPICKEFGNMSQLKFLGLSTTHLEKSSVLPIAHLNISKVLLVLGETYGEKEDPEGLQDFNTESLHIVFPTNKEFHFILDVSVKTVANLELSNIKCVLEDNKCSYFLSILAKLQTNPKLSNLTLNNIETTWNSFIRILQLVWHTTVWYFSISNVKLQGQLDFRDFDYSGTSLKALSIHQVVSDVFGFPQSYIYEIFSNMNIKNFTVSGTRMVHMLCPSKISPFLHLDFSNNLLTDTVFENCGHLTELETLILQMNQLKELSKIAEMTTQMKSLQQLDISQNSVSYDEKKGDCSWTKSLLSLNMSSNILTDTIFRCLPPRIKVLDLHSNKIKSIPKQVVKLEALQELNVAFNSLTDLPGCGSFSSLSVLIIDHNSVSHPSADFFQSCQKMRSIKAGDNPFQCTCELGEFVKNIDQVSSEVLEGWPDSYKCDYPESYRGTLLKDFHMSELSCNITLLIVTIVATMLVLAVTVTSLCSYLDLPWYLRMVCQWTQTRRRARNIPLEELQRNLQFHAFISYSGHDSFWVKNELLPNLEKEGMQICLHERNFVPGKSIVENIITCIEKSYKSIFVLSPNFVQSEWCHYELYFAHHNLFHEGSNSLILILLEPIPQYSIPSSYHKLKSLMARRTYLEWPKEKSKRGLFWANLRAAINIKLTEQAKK
Protocol: (§1) SW620 cells (a gift from Richard Tapping, USA) were utilised for TLR2/1 and TLR2/6 transient transfection experiments, as, unlike HEK293 cells, they are 1) deficient in significant expression of all three receptors, and 2) poorly responsive to Pam2CSK4 and Pam3CSK4 without exogenously added TLRs (Additional file 1). […] SW620 cells were seeded at 3.75 × 10^4 cells per well of a 48 well plate and transiently transfected 24 hours later using Fugene 6 (Promega) at a ratio of 1 μg DNA: 4 μL Fugene 6. For transfection, expression vectors containing cDNA encoding human (in pFLAG-CMV) or equine (in pcDNA3) TLR2, -1 and -6, and CD14 (in pcDNA3), were mixed as appropriate. TLR cDNA-containing vectors were used at 2.5 ng/well; CD14 cDNA-containing vectors were used at 1.25 ng/well. […] Cells were stimulated for six hours, lysed using diluted passive lysis buffer (PLB; Promega), and NF-κB activation measured by the dual luciferase reporter assay (Promega). […]
(§2) SW620 cells were transiently transfected with reporter constructs and one of four receptor combinations: human TLR2+TLR1+CD14, human TLR2+TLR6+CD14, equine TLR2+TLR1+CD14 or equine TLR2+TLR6+CD14, and stimulated with increasing doses of ligand. EC50 and maximum stimulation values were determined at each heterodimer as measures of ligand potency and efficacy respectively.

[2] = target: T2, human TLR2/6 (Homo sapiens, UniProt O60603+Q9Y2C9); assay: NF-κB dual luciferase reporter assay in SW620 cells transfected with human TLR2+TLR6+CD14
T2 construct: FLAG (from vector pFLAG-CMV); expressed in transfected cells; host or cells: SW620 (human)
T2 sequence (O60603 21-784): as the sequence (O60603 21-784) above
T2 sequence (Q9Y2C9 32-796): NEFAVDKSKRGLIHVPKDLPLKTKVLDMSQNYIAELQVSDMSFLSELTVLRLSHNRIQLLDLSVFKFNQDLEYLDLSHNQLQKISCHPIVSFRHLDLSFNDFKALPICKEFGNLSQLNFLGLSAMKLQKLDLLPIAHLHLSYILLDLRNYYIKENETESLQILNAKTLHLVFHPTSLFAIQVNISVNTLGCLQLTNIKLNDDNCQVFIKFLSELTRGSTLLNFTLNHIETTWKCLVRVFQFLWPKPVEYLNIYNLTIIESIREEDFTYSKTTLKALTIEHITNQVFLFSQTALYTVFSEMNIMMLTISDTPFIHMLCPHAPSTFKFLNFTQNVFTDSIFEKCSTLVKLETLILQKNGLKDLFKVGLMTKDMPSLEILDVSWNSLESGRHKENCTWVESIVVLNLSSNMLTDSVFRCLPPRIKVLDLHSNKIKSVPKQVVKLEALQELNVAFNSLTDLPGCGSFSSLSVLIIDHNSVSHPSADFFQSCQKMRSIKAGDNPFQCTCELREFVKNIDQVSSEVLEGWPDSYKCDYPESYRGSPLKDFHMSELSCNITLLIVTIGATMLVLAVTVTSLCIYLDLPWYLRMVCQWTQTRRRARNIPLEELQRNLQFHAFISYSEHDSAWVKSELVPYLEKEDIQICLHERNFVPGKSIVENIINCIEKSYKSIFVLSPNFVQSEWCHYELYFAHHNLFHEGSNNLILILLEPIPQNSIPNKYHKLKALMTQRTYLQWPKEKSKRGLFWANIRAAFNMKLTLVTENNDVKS
Protocol: as §1, §2

[3] = tested on: equine TLR2/1; assay: NF-κB dual luciferase reporter assay in SW620 cells transfected with equine TLR2+TLR1+CD14; details: for EC50: SW620 cells, equine TLR2+TLR1+CD14, 6 h stimulation, NF-κB luciferase, normalised curves
Protocol: as §1, with “ng/well. TLR constructs were replaced with empty vector (pcDNA3), as appropriate, to balance total added DNA amounts. Reporter constructs pNF-κB-luc (Clontech; 25 ng/well) and ph-RG-TK (Promega; 12.5 ng/well), encoding firefly luciferase under an NF-κB promoter and constitutively expressed Renilla luciferase respectively, were then added to all receptor mixtures, together with 10× Tris-EDTA (TE). Following mixing of DNA, and per 4 wells, 0.7 μL Fugene 6 was diluted to 10 μL in serum- and antibiotic-free RPMI and incubated for 5 min. DNA mixtures were then added to the Fugene 6/RPMI mixtures and incubated for 30 min at room temperature. Following incubation, transfection mixtures were diluted to 1 mL per 4 wells in complete SW620 medium.” for “ng/well.”
as §2

[4] = tested on: equine TLR2/6; assay: NF-κB dual luciferase reporter assay in SW620 cells transfected with equine TLR2+TLR6+CD14
Protocol: as §1, §2

[5] = target: T3, human TLR2 (Homo sapiens, UniProt O60603); assay: NF-κB reporter assay in HEK293 cells transfected with human TLR2 only (+CD14); details: 20 ng/mL ligand, human TLR2 + human CD14, endogenous TLR1/6
T3 sequence (O60603 21-784): as the sequence (O60603 21-784) above
Protocol: HEK293 cells were seeded at a density of 3 × 10^4 cells per well of a 96 well plate and transiently transfected 48 h later using JetPEI (Polyplus). For transfection, expression vectors containing cDNA encoding human TLR2, -1 and -6, and CD14, were mixed as appropriate. TLR cDNA-containing and CD14 cDNA-containing vectors were used at 1 ng/well. TLR constructs were replaced as appropriate with empty vector (pcDNA3) to balance the total added DNA amounts. pNF-κB-luc (10 ng/well) and ph-RG-TK (5 ng/well) were added to receptor mixtures, together with 10× TE and 150 mM NaCl to give a total volume of 50 μL per 10 wells. Following mixing of DNA, and per 10 wells, 2 μL JetPEI was added to 48 μL 150 mM NaCl. JetPEI/NaCl was added to the DNA mixtures at a 1:1 ratio and incubated for 30 min at room temperature. Following incubation, transfection mixtures were diluted to 1 mL per 10 wells in complete HEK medium. Old medium was removed from plated cells and replaced with the transfection/complete medium mixtures. […] Cells were stimulated for six hours, lysed using diluted PLB, and NF-κB activation measured by the dual luciferase reporter assay (Promega).
(§3) Supplementary file 1297-9716-44-50-S1.pdf: Additional file 1 Expression of TLRs and responses to synthetic ligands of SW620 and HEK293 cells. […] (A) After 25 PCR cycles, TLR4 was detected in SW620, and TLR1 was detected in HEK293. […]

[6] = target: T3, human TLR2; assay: NF-κB reporter assay in SW620 cells transfected with human TLR2 only (+CD14); design: FLAG (from vector pFLAG-CMV); expressed in transfected cells; host or cells: SW620 (human); details: 20 ng/mL ligand
Protocol: SW620 cells (a gift from Richard Tapping, USA) were utilised for TLR2/1 and TLR2/6 transient transfection experiments, as, unlike HEK293 cells, they are 1) deficient in significant expression of all three receptors, and 2) poorly responsive to Pam2CSK4 and Pam3CSK4 without exogenously added TLRs (Additional file 1). […] SW620 cells were seeded at 3.75 × 10^4 cells per well of a 48 well plate and transiently transfected 24 hours later using Fugene 6 (Promega) at a ratio of 1 μg DNA: 4 μL Fugene 6. For transfection, expression vectors containing cDNA encoding human (in pFLAG-CMV) or equine (in pcDNA3) TLR2, -1 and -6, and CD14 (in pcDNA3), were mixed as appropriate. TLR cDNA-containing vectors were used at 2.5 ng/well; CD14 cDNA-containing vectors were used at 1.25 ng/well. TLR constructs were replaced with empty vector (pcDNA3), as appropriate, to balance total added DNA amounts. […] Cells were stimulated for six hours, lysed using diluted passive lysis buffer (PLB; Promega), and NF-κB activation measured by the dual luciferase reporter assay (Promega).
as §3

Structure (SMILES)	EC50 [1] [nM]	EC50 ([2]; human TLR2+TLR6+CD14, 6 h stimulation, NF-κB luciferase, normalised curves) [nM]	EC50 [3] [ng/mL]	potency at equine TLR2/1 relative to human TLR2/1 ([3]; more potent at equine TLR2/1 than at human TLR2/1) [fold]	EC50 ([4]; equine TLR2+TLR6+CD14, 6 h stimulation, NF-κB luciferase, normalised curves) [ng/mL]	NF-κB response of HEK293 with exogenous TLR2 only [5]	NF-κB response of SW620 with exogenous TLR2 only [6]	stimulation of human TLR2/6 ([2]; data not shown)	stimulation of equine TLR2/6 ([4]; data not shown)
CCCCCCCCCCCCCCCC(=O)OCC(CSC[C@H](N)C(=O)N[C@@H](CO)C(=O)N[C@@H](CCCCN)C(=O)N[C@@H](CCCCN)C(=O)N[C@@H](CCCCN)C(=O)N[C@@H](CCCCN)C(=O)O)OC(=O)CCCCCCCCCCCCCCC (stereo partly shown) [Pam2CSK4] (H-C(X1)SKKKK-OH; N-terminus and C-terminus assumed)	3.31	0.0118	0.43	10	0.010	respond to both ligands	respond weakly		
CCCCCCCCCCCCCCCC(=O)N[C@@H](CSCC(COC(=O)CCCCCCCCCCCCCCC)OC(=O)CCCCCCCCCCCCCCC)C(=O)N[C@@H](CO)C(=O)N[C@@H](CCCCN)C(=O)N[C@@H](CCCCN)C(=O)N[C@@H](CCCCN)C(=O)N[C@@H](CCCCN)C(=O)O (stereo partly shown) [Pam3CSK4] (Palmitoyl-C(X1)SKKKK-OH; C-terminus assumed)	0.311		18.73			respond to both ligands	not	failed to stimulate	failed to stimulate

Source: publication PMC3716717, “The molecular basis for recognition of bacterial ligands at equine TLR2, TLR1 and TLR6” (Veterinary Research, 2013)
